Assay results taken from patent US20220040150A1, “I[…] ADMI[…] FOR DMT-ASSISTED PSYCHOTHERAPY” (Universitatsspital Basel, priority 2020, published 2022).
Entries after “also recorded” stand apart in the source; their conditions may differ. Like-named read-outs stand apart in the source and are kept apart here.

Assays:
[1] = DMT plasma concentrations after intravenous bolus, pilot study (Timmermann et al., 2019); type: in vivo; details: human, consistent with measurements of Timmermann 2019 and Strassman 1994, may represent redistribution, read-out: approximate elimination half-life
Description: A more recent pilot study also assessed plasma concentrations of DMT after intravenous bolus administration of 7-20 mg of DMT in a small number of subjects (Timmermann et al., 2019). DMT blood concentrations were approximately 56 ng/mL 2 minutes after administration of 14 mg (corresponding to approximately 0.2 mg/kg) (Timmermann et al., 2019) in line with the aforementioned data by Strassman (Strassman et al., 1994). The measurements from both studies are consistent with an approximate elimination half-life of 5-10 minutes. However, this may represent rapid redistribution and metabolism and may therefore be shorter than the true elimination half-life (see above). The study only used a bolus, so it is different from the present invention. The above descriptions illustrate that there is limited information on the effects of intravenous DMT administration. However, no study has validly determined the elimination half-life of DMT and other pharmacokinetic parameters and this will be done within the current invention to have better and rational basis on dosing.

[2] = system: healthy subjects; assay: Example 1 clinical study: adverse effects and list of complaints
Description: Identical placebo (saline) was prepared.
Adverse effects and list of complaints: The list of complaints (LC) consists of 66 items offering a global score measuring physical and general discomfort (Zerssen, 1976). The LC list is administered before and at the end of the session with reference to complaints throughout the entire session.

[3] = system: healthy subjects with previous hallucinogen experience; details: cited from earlier work
[4] = system: experienced hallucinogen-using volunteers; details: 0.3 mg/kg iv at half-hour intervals 4 times in a morning; cited from earlier work
[5] = target: serotonin 5-HT2A receptor (Homo sapiens, UniProt P28223); details: similar to LSD and psilocybin; cited from earlier work
[6] = target: serotonin transporter (Homo sapiens, UniProt P31645); details: in contrast to LSD; cited from earlier work
[7] = cited from earlier work
[8] = cited from earlier work; remark: listed apart in the source
[9] = system: healthy volunteers; details: cited from earlier work
[10] = 0.4 mg/kg iv bolus, cited from earlier work
[11] = system: healthy subjects with previous hallucinogen experience; details: cited from earlier work; remark: listed apart in the source
[12] = 2 minutes after iv bolus of 14 mg (approximately 0.2 mg/kg); cited from earlier work
[13] = 0.3 mg/kg iv, cited from earlier work
[14] = 25 mg (0.3 mg/kg) bolus over 30 seconds; cited from earlier work
[15] = target: T1, monoamine oxidase (MAO) A (Homo sapiens, UniProt P21397); details: cited from earlier work
T1 sequence (P21397 1-527): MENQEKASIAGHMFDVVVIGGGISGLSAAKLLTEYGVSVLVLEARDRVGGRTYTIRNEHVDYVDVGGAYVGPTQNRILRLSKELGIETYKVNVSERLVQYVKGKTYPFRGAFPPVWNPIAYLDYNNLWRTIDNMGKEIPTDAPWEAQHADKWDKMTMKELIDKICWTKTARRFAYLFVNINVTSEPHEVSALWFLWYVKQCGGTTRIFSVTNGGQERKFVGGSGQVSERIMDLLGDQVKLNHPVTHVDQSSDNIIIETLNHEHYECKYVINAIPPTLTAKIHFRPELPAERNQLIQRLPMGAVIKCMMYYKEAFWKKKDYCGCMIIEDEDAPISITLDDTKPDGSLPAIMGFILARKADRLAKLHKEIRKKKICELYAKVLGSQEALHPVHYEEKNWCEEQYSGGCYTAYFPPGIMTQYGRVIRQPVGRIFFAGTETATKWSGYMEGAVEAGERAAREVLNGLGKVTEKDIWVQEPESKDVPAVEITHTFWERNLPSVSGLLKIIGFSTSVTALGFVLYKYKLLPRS

[16] = system: healthy subjects; assay: Example 1 clinical study: 5D-ASC scale
[17] = system: healthy subjects; assay: Example 1 clinical study: blood pressure and heart rate; details: perfusion with or without bolus

Sequence of serotonin 5-HT2A receptor (P28223 whole entry): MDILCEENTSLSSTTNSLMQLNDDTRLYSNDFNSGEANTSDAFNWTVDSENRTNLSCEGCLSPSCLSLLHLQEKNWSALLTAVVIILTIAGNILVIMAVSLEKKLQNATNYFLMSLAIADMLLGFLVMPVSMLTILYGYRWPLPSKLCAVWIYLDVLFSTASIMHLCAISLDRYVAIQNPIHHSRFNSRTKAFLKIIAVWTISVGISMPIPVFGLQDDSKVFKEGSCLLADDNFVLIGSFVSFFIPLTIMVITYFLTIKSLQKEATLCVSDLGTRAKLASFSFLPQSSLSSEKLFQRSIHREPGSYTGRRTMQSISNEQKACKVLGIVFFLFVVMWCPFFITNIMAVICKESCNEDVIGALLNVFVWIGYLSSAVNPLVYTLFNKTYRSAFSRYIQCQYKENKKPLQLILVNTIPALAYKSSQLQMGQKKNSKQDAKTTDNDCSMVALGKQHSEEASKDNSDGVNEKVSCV
Sequence of serotonin transporter (P31645 whole entry): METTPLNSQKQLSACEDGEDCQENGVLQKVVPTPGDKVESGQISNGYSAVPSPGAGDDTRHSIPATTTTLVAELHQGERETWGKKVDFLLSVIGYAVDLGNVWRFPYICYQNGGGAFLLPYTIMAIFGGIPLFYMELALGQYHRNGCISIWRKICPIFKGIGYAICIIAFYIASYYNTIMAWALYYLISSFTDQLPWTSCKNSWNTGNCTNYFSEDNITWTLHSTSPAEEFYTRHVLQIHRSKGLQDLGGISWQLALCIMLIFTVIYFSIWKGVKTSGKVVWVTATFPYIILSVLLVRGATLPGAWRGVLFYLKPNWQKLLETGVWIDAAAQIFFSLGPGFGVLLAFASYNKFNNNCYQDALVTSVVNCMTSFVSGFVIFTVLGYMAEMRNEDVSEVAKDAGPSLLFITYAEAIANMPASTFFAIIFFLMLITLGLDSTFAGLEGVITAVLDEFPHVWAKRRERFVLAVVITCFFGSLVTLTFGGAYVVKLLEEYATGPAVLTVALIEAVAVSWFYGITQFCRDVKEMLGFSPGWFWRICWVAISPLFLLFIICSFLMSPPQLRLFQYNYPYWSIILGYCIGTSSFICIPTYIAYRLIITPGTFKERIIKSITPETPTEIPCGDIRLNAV

Question: With `CN(C)CCc1c[nH]c2ccccc12` [DMT, N,N-dimethyltryptamine] as the molecule, how does the half-life [1] read?
Answer: 5 to 10 min

Question: What about the relevant adverse effects ([2]; Example 1) of the same molecule?
Answer: did not result in relevant adverse effects

Question: And the safety of administration ([2]; Example 1)?
Answer: safe

Question: What about the “highest dose still well-tolerated by the study population” value ([2]; perfusion rate, Example 1) of the same molecule?
Answer: 1 mg of DMT/min

Question: What about the reported complaints ([2]; perfusion without bolus, two subjects) of the same molecule?
Answer: lack of appetite; also recorded: tiredness, palpitations, cold feet, and dry mouth

Question: And the “threshold dose for hallucinogenic effects” value ([3]; iv bolus)?
Answer: 0.2 mg/kg

Question: And the “time to peak of effects after injection” value ([3]; iv bolus)?
Answer: ≤ 2 min

Question: What about the “time within which effects resolved” value ([3]; iv bolus) of the same molecule?
Answer: 20 to 30 min

Question: What about the hallucinogenic effect ([3]; lower doses (0.05, 0.1 mg/kg) iv bolus) of the same molecule?
Answer: not hallucinogenic

Question: And the hallucinogenic effect ([3]; two higher doses of 0.2 and 0.4 mg/kg iv bolus)?
Answer: fully hallucinogenic

Question: What about the “Tolerance to the subjective effects of DMT” value [4] of the same molecule?
Answer: did not occur

Question: What about the “interaction with the serotonin 5-HT2A receptor” value [5] of the same molecule?
Answer: interacts

Question: And the “interaction with the serotonin transporter” value [6]?
Answer: interacts

Question: What about the duration of action ([7]; administered parenterally) of the same molecule?
Answer: less than 20 min

Question: And the “activity when administered orally” value ([7]; oral, without MAO inhibition)?
Answer: inactive

Question: And the “Plasma levels of DMT” value ([8]; 10 minutes before start of second dose, 110 minutes after stopping the first infusion)?
Answer: 5 ± 3 ng/mL

Question: What about the “Mean plasma levels of DMT” value ([8]; high dose: bolus 0.3 mg/kg, then infusion 0.02 mg/kg/min) of the same molecule?
Answer: 60 ± 28 ng/mL

Question: What about the “Mean plasma levels of DMT” value ([8]; low dose: bolus 0.2 mg/kg over 5 minutes, then infusion 0.015 mg/kg/min over 84 minutes) of the same molecule?
Answer: 43 ± 26 ng/mL

Question: What about the “time within which subjective effects subsided” value ([9]; after stopping infusion) of the same molecule?
Answer: ≤ 20 min

Question: What about the “subjects who stopped after the first DMT dose due to adverse responses” value ([9]; among the 15 subjects) of the same molecule?
Answer: 3

Question: And the “persons reporting visual hallucinations” value ([9]; high dose)?
Answer: all participants

Question: What about the “time for adverse effects to vanish from stopping the infusion” value ([9]; in vivo) of the same molecule?
Answer: within a few minutes

Question: What about the “persons reporting visual hallucinations” value ([9]; low dose, 15 healthy volunteers) of the same molecule?
Answer: seven

Question: What about the “lasting complaints at interviews” value ([9]; seven days and 12 months after the experiments) of the same molecule?
Answer: no lasting complaints

Question: What about the “subjects reporting tiredness and headache in the evening of the experiment” value ([9]; subjects who received DMT) of the same molecule?
Answer: 10 out of 13

Question: And the “Blood levels of DMT base” value ([10]; 2 minutes)?
Answer: ~90 ng/mL

Question: What about the “Blood levels of DMT base” value ([10]; 5 minutes) of the same molecule?
Answer: ~42 ng/mL

Question: What about the “Blood levels of DMT base” value ([10]; 10 minutes) of the same molecule?
Answer: ~28 ng/mL

Question: And the “Blood levels of DMT base” value ([10]; 15 minutes)?
Answer: ~17 ng/mL

Question: What about the “Blood levels of DMT base” value ([10]; 30 minutes) of the same molecule?
Answer: ~5 ng/mL

Question: What about the Average heart rate ([11]; at 2 minutes) of the same molecule?
Answer: 100 beats/min

Question: And the “mean arterial blood pressure” value ([11]; at 2 minutes)?
Answer: 108 mm Hg

Question: And the “blood pressure, heart rate, pupil size, body core temperature, blood levels of ACTH, cortisol, PRL, β-endorphin and growth hormone” value ([11]; iv bolus)?
Answer: increased

Question: And the DMT blood concentrations [12]?
Answer: approximately 56 ng/mL

Question: And the “blood DMT levels” value ([13]; after 2 minutes)?
Answer: ~70 ng/mL

Question: What about the “blood DMT levels” value ([13]; after 5 minutes) of the same molecule?
Answer: ~50 ng/mL

Question: What about the “blood DMT levels” value ([13]; after 10 minutes) of the same molecule?
Answer: ~30 ng/mL

Question: And the “blood DMT levels” value ([13]; after 15 minutes)?
Answer: ~18 ng/mL

Question: And the “effect site concentration (simulated)” value [14]?
Answer: over 100 ng/mL

Question: What about the “initial plasma concentration spike (simulated)” value [14] of the same molecule?
Answer: over 200 ng/mL

Question: What about the “metabolism by monoamine oxidase (MAO) A” value [15] of the same molecule?
Answer: rapidly metabolized

Question: And the “Anxiety (5D-ASC)” value ([16]; bolus and perfusion)?
Answer: almost absent

Question: And the 5D-ASC scores ([16]; bolus and perfusion compared with perfusion alone, mean in three subjects)?
Answer: more pronouncedly increased 5D-ASC scores

Question: What about the 5D-ASC ratings ([16]; perfusion with placebo bolus) of the same molecule?
Answer: increased ratings of Oceanic Boundlessness and lower ratings in Anxious Ego-Dissolution and Visionary Restructuralization

Question: What about the “effect on blood pressure and heart rate” value [17] of the same molecule?
Answer: only moderately and transiently increased blood pressure
